The values below come from patent US12252524B2, “GIP/GLP1 co-agonist compounds” (Eli Lilly and Company, priority 2018, dated 2025).

Experiment [1] deals with T1, human GLP-1R (Homo sapiens, UniProt P43220). The experiment is described as follows: GLP-1R CHO cell β-arrestin recruitment assay. Type of experiment: cell-based. Details: host or cells: CHO-K1 PathHunter cells, assay-ready frozen. To be noted: for EC50: PathHunter β-arrestin-2 recruitment, 0.1% casein, read-out: hGLP1R B-Arrestin2 Rel EC50 uM (SEM, n); for hGLP1R B-Arrestin2 % Top: normalized to GLP-1 maximum control. Put shortly:
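PathHunter CHO-K1 cells with ProLink-tagged human GLP-1R and enzyme-acceptor-tagged β-arrestin-2 treated with serially diluted peptides in assay buffer containing 0.1% hydrolyzed casein, 90 min at 37 °C.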
Background: Activated receptors often draw arrestin, which recruitment assays turn into a signal.

The target of the next experiment is T2, human Gcg receptor (Homo sapiens, UniProt P47871).
T2 construct: expressed in transfected cells; crude membranes
T2 sequence (P47871 26-477): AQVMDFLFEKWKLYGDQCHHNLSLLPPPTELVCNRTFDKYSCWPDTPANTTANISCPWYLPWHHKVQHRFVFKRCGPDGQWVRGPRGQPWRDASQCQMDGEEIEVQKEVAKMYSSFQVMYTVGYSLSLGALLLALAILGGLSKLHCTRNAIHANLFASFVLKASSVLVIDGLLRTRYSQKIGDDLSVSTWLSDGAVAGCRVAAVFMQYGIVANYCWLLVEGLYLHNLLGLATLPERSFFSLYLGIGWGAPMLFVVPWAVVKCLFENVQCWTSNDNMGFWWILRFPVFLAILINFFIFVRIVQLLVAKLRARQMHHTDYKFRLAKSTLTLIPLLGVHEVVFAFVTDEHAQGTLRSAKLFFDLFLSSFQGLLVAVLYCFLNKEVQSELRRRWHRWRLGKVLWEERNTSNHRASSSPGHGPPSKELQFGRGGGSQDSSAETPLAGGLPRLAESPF
The experiment is described as follows: [125I]-Glucagon binding (SPA), human Gcg receptor. To be noted: read-out: hGLcgR Ki, nM (SEM, n). The procedure, abridged:
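Cell pellets were lysed in hypotonic Tris buffer, pH 7.5, homogenized, and spun at low then high speed to give crude membranes. Ki was derived from the fitted IC50.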

Experiment [2] addresses T1, human GLP-1R. The experiment is described as follows: [125I]-GLP-1 binding (SPA), human GLP-1 receptor. To be noted: read-out: hGLP1R Ki, (nM) (SEM, n). On the set-up: expressed in transfected cells; crude membranes. Put shortly: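 Ki values are geometric means with SEM over independent replicates on different days, derived from IC50s fitted by four-parameter nonlinear regression. The assay used crude cell membranes in HEPES buffer, pH 7.4, containing CaCl2, MgCl2, bacitracin and TWEEN-20.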

For another experiment, the target named is T3, human GIP receptor (Homo sapiens, UniProt P48546).
T3 construct: expressed in transfected cells; crude membranes
T3 sequence (P48546 22-466): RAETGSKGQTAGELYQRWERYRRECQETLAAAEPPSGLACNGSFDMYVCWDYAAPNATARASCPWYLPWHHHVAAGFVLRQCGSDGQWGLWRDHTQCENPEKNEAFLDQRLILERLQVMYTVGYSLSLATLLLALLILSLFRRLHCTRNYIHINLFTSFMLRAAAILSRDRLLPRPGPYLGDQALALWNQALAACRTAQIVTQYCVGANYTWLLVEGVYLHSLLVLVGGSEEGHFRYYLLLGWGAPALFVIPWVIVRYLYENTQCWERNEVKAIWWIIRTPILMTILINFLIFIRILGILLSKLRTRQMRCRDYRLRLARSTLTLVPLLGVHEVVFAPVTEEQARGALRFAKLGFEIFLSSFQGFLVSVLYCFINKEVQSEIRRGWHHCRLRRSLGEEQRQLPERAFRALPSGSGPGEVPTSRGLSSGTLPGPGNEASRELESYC
The experiment is described as follows: [125I]-GIP binding (SPA), human GIP receptor. To be noted: read-out: hGIPR Ki, nM (SEM, n).

For experiment [3], the target named is human GLP-1 receptor (GLP-1R) (Homo sapiens, UniProt P43220). Kind of experiment: cAMP pharmacological functional assay in presence of casein, hGLP-1R. It is filed as cell-based. Conditions: HEK293 cells expressing hGLP-1R, 0.1% Casein, geometric mean; read-out: hGLP1R cAMP Rel EC50 nM (SEM, n).
human GLP-1 receptor (GLP-1R), sequence (P43220 24-463): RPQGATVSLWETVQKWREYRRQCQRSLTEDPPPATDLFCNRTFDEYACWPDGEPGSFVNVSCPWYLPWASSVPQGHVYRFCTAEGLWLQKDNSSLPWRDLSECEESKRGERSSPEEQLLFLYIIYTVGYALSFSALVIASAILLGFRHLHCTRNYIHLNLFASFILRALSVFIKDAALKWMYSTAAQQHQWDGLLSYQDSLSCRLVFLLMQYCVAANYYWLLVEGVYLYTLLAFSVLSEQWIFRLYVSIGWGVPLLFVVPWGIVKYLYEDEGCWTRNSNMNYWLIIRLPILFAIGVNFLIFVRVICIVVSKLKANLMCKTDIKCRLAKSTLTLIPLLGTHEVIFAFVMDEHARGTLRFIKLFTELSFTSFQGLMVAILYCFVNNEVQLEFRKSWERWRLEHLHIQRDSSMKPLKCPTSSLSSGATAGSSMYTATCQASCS
Experiment [4] addresses T4, gastric inhibitory peptide receptor (GIPR) (Homo sapiens, UniProt P48546).
T4 sequence (P48546 22-466): T3 sequence (P48546 22-466)
Kind of experiment: cAMP pharmacological functional assay in presence of casein, hGIPR. Type of experiment: cell-based. To be noted: HEK293 cells expressing hGIPR, 0.1% Casein, geometric mean; read-out: hGIPR cAMP Rel EC50 nM (SEM, n).

Experiment [5] has as its target T1, human GLP-1R. Kind of experiment: GLP-1R HEK293 cell membrane [35S]GTPγS binding assay. Details: expressed in transfected cells; host or cells: HEK293 cells expressing human GLP-1R; membranes. Conditions: HEK293 cell membranes expressing human GLP-1R, [35S]GTPγS binding; read-out: hGLP1R GTPgS Rel EC50 nM (SEM, n). It is filed as biochemical. Put shortly:
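Membranes from HEK293 cells expressing the receptor incubated with peptide and […] [35S]GTPγS in HEPES pH 7.4 buffer with NaCl, MgCl2, saponin and BSA, 30 min at room temperature. Gαs-bound label captured by anti-Gαs antibody/SPA beads and counted; EC50 from four-parameter logistic fit.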
On the technique in general: Binding of GTPγS marks nucleotide exchange on a G protein.

Each structure is given as a SMILES string. pEC50: −log10 of the molar value. Numbered stars: 1 amine (or outer) side, 2 acyl side, 3 side chain; on linkers, the order of the positions; unused ones are H or OH. Square brackets hold non-standard residues; d marks the D form. Side chains are listed from the residue outwards. Peptide text beside a SMILES is read from it. * marks the point of attachment. C20 diacid = O=C(O)CCCCCCCCCCCCCCCCCCC(=O)*; γGlu = O=C(O)[C@H](CCC(=O)[*:2])N[*:1]; αMeL = CC(C)C[C@](C)(N)C(=O)O; Orn = NCCC[C@H](N)C(=O)O; AEEA = NCCOCCOCC(=O)O; Aib = CC(C)(N)C(=O)O

T1 sequence (P43220 24-463): as above

Consider `CC[C@H](C)[C@H](NC(=O)[C@H](CC(C)C)NC(=O)[C@H](Cc1ccc(O)cc1)NC(=O)[C@H](CCC(=O)O)NC(=O)[C@@H](NC(=O)[C@H](Cc1ccccc1)NC(=O)[C@H](CCC(=O)O)NC(=O)C(C)(C)NC(=O)[C@H](CCC(N)=O)NC(=O)[C@H](C)NC(=O)[C@H](CCCCNC(=O)COCCOCCNC(=O)COCCOCCNC(=O)CC[C@H](NC(=O)CCCCCCCCCCCCCCCCCCC(=O)O)C(=O)O)NC(=O)[C@H](CCCCN)NC(=O)[C@H](CC(=O)O)NC(=O)[C@H](CC(C)C)NC(=O)[C@](C)(CC(C)C)NC(=O)[C@@H](NC(=O)[C@H](CO)NC(=O)[C@H](Cc1ccc(O)cc1)NC(=O)[C@H](CC(=O)O)NC(=O)[C@H](CO)NC(=O)[C@@H](NC(=O)[C@H](Cc1ccccc1)NC(=O)[C@@H](NC(=O)CNC(=O)[C@H](CCC(=O)O)NC(=O)C(C)(C)NC(=O)[C@H](N)Cc1ccc(O)cc1)[C@@H](C)O)[C@@H](C)O)[C@@H](C)CC)[C@@H](C)CC)C(=O)N[C@@H](C)C(=O)NCC(=O)NCC(=O)N1CCC[C@H]1C(=O)N[C@@H](CO)C(=O)N[C@@H](CO)C(=O)NCC(=O)N[C@@H](C)C(=O)N1CCC[C@H]1C(=O)N1CCC[C@H]1C(=O)N1CCC[C@H]1C(=O)N[C@@H](CO)C(N)=O` [Example 290] (H-[dY][Aib]EGTFTSDYSI[αMeL]LDKK([AEEA-AEEA-γGlu-C20 diacid])AQ[Aib]EFIEYLIAGGPSSGAPPPS-NH2), for which the EC50 at human GLP-1R [1] (CHO-K1 cells) was found to be 0.0238 µM; in experiment [3], 0.179 nM; in experiment [4], 0.0629 nM; at human GLP-1R [5], 0.466 nM. For the same molecule, on human GLP-1R [1], the “hGLP1R B-Arrestin2 % Top” value is 20.0%. Besides, the inhibition constant (Ki) on human Gcg receptor stood at 308 nM; at human GLP-1R [2], 2.44 nM; at human GIP receptor, 0.0617 nM.

In the case of `CC[C@H](C)[C@H](NC(=O)[C@H](CC(C)C)NC(=O)[C@H](Cc1ccc(O)cc1)NC(=O)[C@H](CCC(=O)O)NC(=O)[C@@H](NC(=O)[C@H](Cc1ccccc1)NC(=O)[C@H](C)NC(=O)C(C)(C)NC(=O)[C@H](CCC(N)=O)NC(=O)[C@H](C)NC(=O)[C@H](CCCCNC(=O)COCCOCCNC(=O)COCCOCCNC(=O)CC[C@H](NC(=O)CCCCCCCCCCCCCCCCCCC(=O)O)C(=O)O)NC(=O)[C@H](CCCN)NC(=O)[C@H](CC(=O)O)NC(=O)[C@H](CC(C)C)NC(=O)[C@](C)(CC(C)C)NC(=O)[C@@H](NC(=O)[C@H](CO)NC(=O)[C@H](Cc1ccc(O)cc1)NC(=O)[C@H](CC(=O)O)NC(=O)[C@H](CO)NC(=O)[C@@H](NC(=O)[C@H](Cc1ccccc1)NC(=O)[C@@H](NC(=O)CNC(=O)[C@H](CCC(=O)O)NC(=O)C(C)(C)NC(=O)[C@H](N)Cc1ccc(O)cc1)[C@@H](C)O)[C@@H](C)O)[C@@H](C)CC)C(C)C)C(=O)N[C@@H](C)C(=O)NCC(=O)NCC(=O)N1CCC[C@H]1C(=O)N[C@@H](CO)C(=O)N[C@@H](CO)C(=O)NCC(=O)N[C@@H](C)C(=O)N1CCC[C@H]1C(=O)N1CCC[C@H]1C(=O)N1CCC[C@H]1C(=O)N[C@@H](CO)C(N)=O` [Example 358] (H-[dY][Aib]EGTFTSDYSI[αMeL]LD[Orn]K([AEEA-AEEA-γGlu-C20 diacid])AQ[Aib]AFVEYLIAGGPSSGAPPPS-NH2; N-terminus assumed), the concentration for a half-maximal effect (EC50) on human GLP-1R [1] (CHO-K1 cells) is 0.00938 µM; in experiment [3], 0.117 nM; in experiment [4], 0.183 nM; on human GLP-1R [5], 0.414 nM. For the same molecule, on human GLP-1R [1], the “hGLP1R B-Arrestin2 % Top” value is 21.4%. The Ki at human Gcg receptor was determined as 915 nM; at human GLP-1R [2], 1.37 nM; at human GIP receptor, 0.0636 nM.

`CC[C@H](C)[C@H](NC(=O)[C@H](CC(C)C)NC(=O)[C@H](Cc1ccc(O)cc1)NC(=O)[C@H](CCC(=O)O)NC(=O)[C@@H](NC(=O)[C@H](Cc1ccccc1)NC(=O)[C@H](C)NC(=O)C(C)(C)NC(=O)[C@H](CCC(N)=O)NC(=O)[C@H](C)NC(=O)[C@H](CCCCNC(=O)COCCOCCNC(=O)COCCOCCNC(=O)CC[C@H](NC(=O)CCCCCCCCCCCCCCCCCCC(=O)O)C(=O)O)NC(=O)[C@H](CCCCN)NC(=O)[C@H](CC(=O)O)NC(=O)[C@H](CC(C)C)NC(=O)[C@](C)(CC(C)C)NC(=O)[C@@H](NC(=O)[C@H](CO)NC(=O)[C@H](Cc1ccc(O)cc1)NC(=O)[C@H](CC(=O)O)NC(=O)[C@H](CO)NC(=O)[C@@H](NC(=O)[C@H](Cc1ccccc1)NC(=O)[C@@H](NC(=O)CNC(=O)[C@H](CCC(=O)O)NC(=O)C(C)(C)NC(=O)[C@H](N)Cc1ccc(O)cc1)[C@@H](C)O)[C@@H](C)O)[C@@H](C)CC)[C@@H](C)CC)C(=O)N[C@@H](C)C(=O)NCC(=O)NCC(=O)N1CCC[C@H]1C(=O)N[C@@H](CO)C(=O)N[C@@H](CO)C(=O)NCC(=O)N[C@@H](C)C(=O)N1CCC[C@H]1C(=O)N1CCC[C@H]1C(=O)N1CCC[C@H]1C(=O)N[C@@H](CO)C(N)=O` [Example 340] (H-[dY][Aib]EGTFTSDYSI[αMeL]LDKK([AEEA-AEEA-γGlu-C20 diacid])AQ[Aib]AFIEYLIAGGPSSGAPPPS-NH2): the concentration giving a half-maximal response (EC50) on human GLP-1R [1] (CHO-K1 cells) stood at 0.0107 µM; in experiment [3], 0.252 nM; in experiment [4], 0.0823 nM; at human GLP-1R [5], 0.45 nM. The “hGLP1R B-Arrestin2 % Top” value on human GLP-1R [1] was determined as 20.1%. The Ki on human Gcg receptor was 250 nM; at human GLP-1R [2], 2.08 nM; on human GIP receptor, 0.0507 nM.

For the molecule `CC[C@H](C)[C@H](NC(=O)[C@H](CC(C)C)NC(=O)[C@H](Cc1ccc(O)cc1)NC(=O)[C@H](CCC(=O)O)NC(=O)[C@@H](NC(=O)[C@H](Cc1ccccc1)NC(=O)[C@H](C)NC(=O)C(C)(C)NC(=O)[C@H](CCC(N)=O)NC(=O)[C@H](C)NC(=O)[C@H](CCCCNC(=O)COCCOCCNC(=O)COCCOCCNC(=O)CC[C@H](NC(=O)CCCCCCCCCCCCCCCCCCC(=O)O)C(=O)O)NC(=O)[C@H](CCCCN)NC(=O)[C@H](CC(=O)O)NC(=O)[C@H](CC(C)C)NC(=O)[C@](C)(CC(C)C)NC(=O)[C@@H](NC(=O)[C@H](CO)NC(=O)[C@H](Cc1ccc(O)cc1)NC(=O)[C@H](CC(=O)O)NC(=O)[C@H](CO)NC(=O)[C@@H](NC(=O)[C@H](Cc1ccccc1)NC(=O)[C@@H](NC(=O)CNC(=O)[C@H](CCC(=O)O)NC(=O)C(C)(C)NC(=O)[C@H](N)Cc1ccc(O)cc1)[C@@H](C)O)[C@@H](C)O)[C@@H](C)CC)[C@@H](C)CC)C(=O)N[C@@H](CCC(=O)O)C(=O)NCC(=O)NCC(=O)N1CCC[C@H]1C(=O)N[C@@H](CO)C(=O)N[C@@H](CO)C(=O)NCC(=O)N[C@@H](C)C(=O)N1CCC[C@H]1C(=O)N1CCC[C@H]1C(=O)N1CCC[C@H]1C(=O)N[C@@H](CO)C(N)=O` [Example 334], on human GLP-1R [1] (CHO-K1 cells, 0.1% w/v hydrolyzed Casein, read-out: hGLP1R B-Arrestin2 Rel EC50), the negative-log EC50 (pEC50) is under 4.99. Moreover, the 50% effective concentration (EC50) was over 10.3 µM on human GLP-1R [1] (CHO-K1 cells), 0.303 nM in experiment [3], 0.0718 nM in experiment [4] and 0.432 nM at human GLP-1R [5]. The inhibition constant (Ki) was determined as 192 nM at human Gcg receptor, 2.17 nM at human GLP-1R [2] and 0.0646 nM on human GIP receptor.

For orientation: EC50 means the midpoint of the concentration-response curve. Broadly, the Ki is the equilibrium dissociation constant of an inhibitor or competing ligand from its target. The term pEC50 denotes the EC50 on a negative log10 scale, so that one unit is a factor of ten.
